Source: paper PMC7549094 (Journal of Medicinal Chemistry, 2020)
≈ marks a conversion by molar mass, not a printed value.

How the values were obtained:
[1] = system: intramacrophage L. donovani amastigotes; assay: L. donovani amastigote proliferation within primary mouse macrophages; assay type: cell-based; details: Leishmania donovani, Macrophage
[2] = high-throughput solubility pH 6.8; assay type: physicochemical; details: high-throughput assay format, read-out: HT sol. pH 6.8
[3] = mouse plasma protein binding; assay type: in vitro ADME
hr Beta2 ag = hr Beta2 ag (Homo sapiens, UniProt P07550); assay: receptor profile (Table S4); assay type: biochemical
hr D1 antag = hr D1 antag (Homo sapiens, UniProt P21728); assay: receptor profile (Table S4); assay type: biochemical
hr H1 = hr H1 (Homo sapiens, UniProt P35367); assay: receptor profile (Table S4); assay type: binding
hr 5-HT1A antag = molecular target: T1, hr 5-HT1A antag (Homo sapiens, UniProt P08908); assay: receptor profile (Table S4); assay type: biochemical
T1 sequence (P08908 1-422): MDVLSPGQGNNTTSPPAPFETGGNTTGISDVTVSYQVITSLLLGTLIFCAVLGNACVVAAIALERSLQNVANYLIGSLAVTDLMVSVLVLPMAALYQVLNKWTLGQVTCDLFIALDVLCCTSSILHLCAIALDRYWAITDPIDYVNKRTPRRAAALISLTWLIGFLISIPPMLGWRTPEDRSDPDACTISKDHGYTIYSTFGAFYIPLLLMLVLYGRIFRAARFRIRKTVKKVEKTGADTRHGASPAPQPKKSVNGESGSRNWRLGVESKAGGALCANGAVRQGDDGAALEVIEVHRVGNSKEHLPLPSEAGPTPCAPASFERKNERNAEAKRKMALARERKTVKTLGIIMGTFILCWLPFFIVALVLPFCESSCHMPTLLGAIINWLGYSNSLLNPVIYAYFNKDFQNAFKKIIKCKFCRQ

hr 5-HT3 = molecular target: T2, hr 5-HT3 (Homo sapiens, UniProt P46098); assay: receptor profile (Table S4); assay type: binding
T2 sequence (P46098 24-478): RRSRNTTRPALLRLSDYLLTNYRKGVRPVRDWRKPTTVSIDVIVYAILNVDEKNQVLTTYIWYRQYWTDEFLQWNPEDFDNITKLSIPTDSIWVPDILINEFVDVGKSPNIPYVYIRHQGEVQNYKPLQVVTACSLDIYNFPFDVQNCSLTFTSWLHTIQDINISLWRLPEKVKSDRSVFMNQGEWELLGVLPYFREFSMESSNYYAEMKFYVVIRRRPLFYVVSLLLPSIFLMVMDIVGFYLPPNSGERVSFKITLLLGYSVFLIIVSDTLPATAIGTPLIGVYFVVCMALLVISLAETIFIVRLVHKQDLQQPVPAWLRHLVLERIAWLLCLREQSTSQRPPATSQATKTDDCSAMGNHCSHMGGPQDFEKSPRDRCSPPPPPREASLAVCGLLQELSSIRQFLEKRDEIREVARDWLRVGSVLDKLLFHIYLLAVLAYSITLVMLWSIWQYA

rr AR ag = molecular target: T3, rr AR ag (Rattus norvegicus, UniProt P15207); assay: receptor profile (Table S4); assay type: biochemical
T3 sequence (P15207 1-902): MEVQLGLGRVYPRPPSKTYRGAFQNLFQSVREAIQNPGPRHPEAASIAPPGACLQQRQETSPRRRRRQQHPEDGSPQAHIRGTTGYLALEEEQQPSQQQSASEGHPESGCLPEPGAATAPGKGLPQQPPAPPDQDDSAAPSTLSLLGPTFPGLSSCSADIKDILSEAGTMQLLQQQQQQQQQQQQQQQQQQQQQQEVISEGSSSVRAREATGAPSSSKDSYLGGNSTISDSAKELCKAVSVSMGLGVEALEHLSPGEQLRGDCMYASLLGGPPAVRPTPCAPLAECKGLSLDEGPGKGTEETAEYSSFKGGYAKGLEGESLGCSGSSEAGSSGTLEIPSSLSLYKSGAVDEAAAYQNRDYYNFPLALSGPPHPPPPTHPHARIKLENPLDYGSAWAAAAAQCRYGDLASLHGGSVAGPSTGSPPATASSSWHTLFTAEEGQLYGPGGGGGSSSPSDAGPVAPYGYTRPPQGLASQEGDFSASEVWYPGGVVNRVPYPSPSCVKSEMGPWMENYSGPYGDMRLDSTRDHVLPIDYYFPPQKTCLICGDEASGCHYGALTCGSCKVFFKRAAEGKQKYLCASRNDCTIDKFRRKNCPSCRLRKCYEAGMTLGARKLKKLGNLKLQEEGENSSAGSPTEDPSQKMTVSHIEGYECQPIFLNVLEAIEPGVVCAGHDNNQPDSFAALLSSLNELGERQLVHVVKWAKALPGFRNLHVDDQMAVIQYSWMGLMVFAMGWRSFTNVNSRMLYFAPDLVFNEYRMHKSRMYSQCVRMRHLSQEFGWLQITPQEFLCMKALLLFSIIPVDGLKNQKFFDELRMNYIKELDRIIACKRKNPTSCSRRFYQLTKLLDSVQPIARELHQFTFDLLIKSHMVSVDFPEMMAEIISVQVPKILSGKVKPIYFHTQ

hr 5-HT2B ag = hr 5-HT2B ag (Homo sapiens, UniProt P41595); assay: receptor profile (Table S4); assay type: biochemical
Nav1.5 = Nav1.5 (Homo sapiens, UniProt Q14524); assay: receptor profile (Table S4); details: human
hr Nav1.5 = hr Nav1.5 (Homo sapiens, UniProt Q14524); assay: receptor profile (Table S4); details: hr Nav1.5
Cav1.2 = Cav1.2 (Homo sapiens, UniProt Q13936); assay: receptor profile (Table S4); details: human
hr Cav1.2 = hr Cav1.2 (Homo sapiens, UniProt Q13936); assay: receptor profile (Table S4); details: hr Cav1.2

hr Beta2 ag, sequence (P07550 whole entry): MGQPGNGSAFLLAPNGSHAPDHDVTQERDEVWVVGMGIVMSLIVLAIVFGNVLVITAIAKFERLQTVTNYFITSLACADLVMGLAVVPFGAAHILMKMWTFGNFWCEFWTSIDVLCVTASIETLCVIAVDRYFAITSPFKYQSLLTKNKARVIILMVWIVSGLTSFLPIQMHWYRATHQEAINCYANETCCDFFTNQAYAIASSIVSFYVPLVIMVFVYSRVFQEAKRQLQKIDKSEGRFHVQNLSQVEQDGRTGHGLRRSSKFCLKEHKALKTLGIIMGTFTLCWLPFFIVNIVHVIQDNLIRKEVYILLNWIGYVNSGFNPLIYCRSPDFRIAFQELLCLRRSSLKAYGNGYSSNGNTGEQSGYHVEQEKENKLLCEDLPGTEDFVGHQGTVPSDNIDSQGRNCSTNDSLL
hr H1, sequence (P35367 whole entry): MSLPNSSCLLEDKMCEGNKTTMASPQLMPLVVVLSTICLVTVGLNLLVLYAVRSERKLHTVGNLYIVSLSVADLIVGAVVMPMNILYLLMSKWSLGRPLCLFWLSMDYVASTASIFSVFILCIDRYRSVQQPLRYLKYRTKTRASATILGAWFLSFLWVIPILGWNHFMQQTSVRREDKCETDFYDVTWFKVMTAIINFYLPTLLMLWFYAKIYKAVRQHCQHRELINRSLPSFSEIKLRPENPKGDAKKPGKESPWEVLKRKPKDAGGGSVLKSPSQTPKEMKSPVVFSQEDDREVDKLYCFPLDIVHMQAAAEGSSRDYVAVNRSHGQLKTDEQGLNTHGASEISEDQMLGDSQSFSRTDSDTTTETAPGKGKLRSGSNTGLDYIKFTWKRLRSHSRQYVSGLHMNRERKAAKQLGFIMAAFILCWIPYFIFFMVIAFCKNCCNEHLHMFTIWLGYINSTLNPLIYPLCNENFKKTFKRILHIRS
hr 5-HT2B ag, sequence (P41595 whole entry): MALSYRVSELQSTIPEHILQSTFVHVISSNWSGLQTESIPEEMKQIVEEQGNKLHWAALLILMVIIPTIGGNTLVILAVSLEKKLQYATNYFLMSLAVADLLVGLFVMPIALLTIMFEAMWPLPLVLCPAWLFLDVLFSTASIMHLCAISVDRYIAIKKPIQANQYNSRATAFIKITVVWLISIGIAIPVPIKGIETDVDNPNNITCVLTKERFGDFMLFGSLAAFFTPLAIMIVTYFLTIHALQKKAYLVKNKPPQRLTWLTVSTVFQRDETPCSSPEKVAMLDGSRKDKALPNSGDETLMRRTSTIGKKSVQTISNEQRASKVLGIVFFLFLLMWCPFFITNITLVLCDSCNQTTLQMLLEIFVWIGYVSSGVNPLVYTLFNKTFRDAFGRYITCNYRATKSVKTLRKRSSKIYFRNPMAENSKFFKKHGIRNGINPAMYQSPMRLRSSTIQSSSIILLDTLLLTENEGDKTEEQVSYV
hr D1 antag, sequence (P21728 whole entry): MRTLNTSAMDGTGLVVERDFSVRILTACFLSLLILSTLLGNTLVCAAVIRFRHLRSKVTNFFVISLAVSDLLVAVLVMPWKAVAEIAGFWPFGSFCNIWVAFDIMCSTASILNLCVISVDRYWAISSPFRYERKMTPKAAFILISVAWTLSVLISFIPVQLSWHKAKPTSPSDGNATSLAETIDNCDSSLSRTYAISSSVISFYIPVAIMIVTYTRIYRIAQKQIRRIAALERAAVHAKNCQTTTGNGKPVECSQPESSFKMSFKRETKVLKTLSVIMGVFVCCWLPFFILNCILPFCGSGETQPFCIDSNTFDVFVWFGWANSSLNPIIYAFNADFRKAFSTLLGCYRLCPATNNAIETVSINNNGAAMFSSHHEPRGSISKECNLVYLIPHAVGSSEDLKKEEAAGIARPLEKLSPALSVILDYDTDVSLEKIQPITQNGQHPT
Nav1.5, sequence (Q14524 whole entry): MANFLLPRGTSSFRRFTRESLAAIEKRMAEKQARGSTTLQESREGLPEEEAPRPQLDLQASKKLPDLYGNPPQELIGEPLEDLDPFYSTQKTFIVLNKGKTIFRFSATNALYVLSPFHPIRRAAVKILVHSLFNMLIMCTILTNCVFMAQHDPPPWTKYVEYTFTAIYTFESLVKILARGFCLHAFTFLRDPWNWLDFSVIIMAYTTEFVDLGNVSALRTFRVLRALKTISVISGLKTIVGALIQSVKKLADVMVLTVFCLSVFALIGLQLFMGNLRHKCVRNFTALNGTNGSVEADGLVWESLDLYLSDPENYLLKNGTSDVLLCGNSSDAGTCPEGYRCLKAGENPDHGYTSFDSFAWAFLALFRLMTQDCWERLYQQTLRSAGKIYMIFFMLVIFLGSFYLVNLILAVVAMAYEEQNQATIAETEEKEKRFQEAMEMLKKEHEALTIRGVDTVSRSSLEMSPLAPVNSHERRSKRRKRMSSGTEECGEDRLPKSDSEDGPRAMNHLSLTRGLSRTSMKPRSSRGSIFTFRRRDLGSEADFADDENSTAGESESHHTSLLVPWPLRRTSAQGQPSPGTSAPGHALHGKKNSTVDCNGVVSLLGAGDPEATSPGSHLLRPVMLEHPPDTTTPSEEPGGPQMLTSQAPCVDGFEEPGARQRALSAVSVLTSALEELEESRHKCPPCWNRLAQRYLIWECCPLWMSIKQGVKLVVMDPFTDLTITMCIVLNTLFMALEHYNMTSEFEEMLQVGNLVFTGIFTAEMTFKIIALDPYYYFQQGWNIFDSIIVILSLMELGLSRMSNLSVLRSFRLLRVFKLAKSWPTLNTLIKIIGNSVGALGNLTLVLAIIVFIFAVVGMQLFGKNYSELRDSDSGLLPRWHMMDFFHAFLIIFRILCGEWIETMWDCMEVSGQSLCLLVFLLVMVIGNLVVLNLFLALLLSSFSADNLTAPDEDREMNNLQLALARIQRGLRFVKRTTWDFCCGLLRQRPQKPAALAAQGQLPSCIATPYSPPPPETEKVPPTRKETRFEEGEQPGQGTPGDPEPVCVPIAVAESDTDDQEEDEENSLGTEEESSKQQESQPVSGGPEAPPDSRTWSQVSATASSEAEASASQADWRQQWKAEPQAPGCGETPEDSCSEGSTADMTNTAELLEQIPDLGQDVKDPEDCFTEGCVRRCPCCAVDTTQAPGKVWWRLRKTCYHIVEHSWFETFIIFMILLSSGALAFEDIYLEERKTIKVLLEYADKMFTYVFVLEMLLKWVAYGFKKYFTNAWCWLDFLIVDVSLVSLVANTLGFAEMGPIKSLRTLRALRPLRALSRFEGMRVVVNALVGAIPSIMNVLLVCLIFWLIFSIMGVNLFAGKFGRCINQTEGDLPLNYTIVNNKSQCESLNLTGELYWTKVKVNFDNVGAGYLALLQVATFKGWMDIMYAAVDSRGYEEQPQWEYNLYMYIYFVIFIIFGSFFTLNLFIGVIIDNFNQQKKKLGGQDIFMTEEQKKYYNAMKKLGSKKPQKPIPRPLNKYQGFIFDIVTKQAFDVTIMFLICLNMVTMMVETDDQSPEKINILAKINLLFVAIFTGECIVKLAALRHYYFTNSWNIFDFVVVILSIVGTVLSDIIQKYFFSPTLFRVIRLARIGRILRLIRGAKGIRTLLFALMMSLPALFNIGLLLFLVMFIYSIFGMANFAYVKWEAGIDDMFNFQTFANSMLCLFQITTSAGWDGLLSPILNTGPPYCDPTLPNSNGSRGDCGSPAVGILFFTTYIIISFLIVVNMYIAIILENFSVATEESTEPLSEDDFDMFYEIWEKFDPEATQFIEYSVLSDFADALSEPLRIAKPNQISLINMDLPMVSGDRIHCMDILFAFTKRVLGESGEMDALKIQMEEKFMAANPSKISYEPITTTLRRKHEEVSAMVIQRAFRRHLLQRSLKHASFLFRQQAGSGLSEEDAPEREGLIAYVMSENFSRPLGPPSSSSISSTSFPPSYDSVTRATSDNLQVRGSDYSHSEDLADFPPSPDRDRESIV

Q: Which results are given for `Cc1nc(C)c(C(=O)Nc2ccc(F)c(-c3nc4ncc(-c5ncccc5C)cn4n3)c2)o1` [compound 1, N-(4-Fluoro-3-(6-(3-methylpyridin-2-yl)-[1,2,4]triazolo[1,5-a]pyrimidin-2-yl)phenyl)-2,4-dimethyloxazole-5-carboxamide]?
A: EC50 [1]: 0.04 µM; solubility kinetic [2]: 17 µM (≈ 7.54 µg/mL); fraction unbound [3]: 0.056; EC50/IC50 (hr Beta2 ag; hr Beta2 ag): > 30 µM; inhibition at 10 µM (hr Beta2 ag; read-out: % inh/act @ 10 µM): 1%; inhibition at 30 µM (hr Beta2 ag; read-out: % inh/act @ 30 µM): 7%; EC50/IC50 (hr D1 antag; hr D1 antag): > 30 µM; inhibition at 10 µM (hr D1 antag; read-out: % inh/act @ 10 µM): -11%; inhibition at 30 µM (hr D1 antag; read-out: % inh/act @ 30 µM): -5%; EC50/IC50 (hr H1; hr H1): > 30 µM; inhibition at 10 µM (hr H1; read-out: % inh/act @ 10 µM): 10%; inhibition at 30 µM (hr H1; read-out: % inh/act @ 30 µM): 24%; EC50/IC50 (hr 5-HT1A antag; hr 5-HT1A antag): > 30 µM; inhibition at 10 µM (hr 5-HT1A antag; read-out: % inh/act @ 10 µM): 19%; inhibition at 30 µM (hr 5-HT1A antag; read-out: % inh/act @ 30 µM): 42%; EC50/IC50 (hr 5-HT3; hr 5-HT3): > 30 µM; inhibition at 10 µM (hr 5-HT3; read-out: % inh/act @ 10 µM): 22%; inhibition at 30 µM (hr 5-HT3; read-out: % inh/act @ 30 µM): 19%; inhibition at 10 µM (rr AR ag; read-out: % inh/act @ 10 µM): 1%; inhibition at 30 µM (rr AR ag; read-out: % inh/act @ 30 µM): 0%; EC50/IC50 (rr AR ag; rr AR ag): > 30 µM; EC50/IC50 (hr 5-HT2B ag; hr 5-HT2B ag): > 30 µM; inhibition at 10 µM (hr 5-HT2B ag; read-out: % inh/act @ 10 µM): -6%; inhibition at 30 µM (hr 5-HT2B ag; read-out: % inh/act @ 30 µM): -3%; % inh/act @ 10 µM (h PDE3): 6%; % inh/act @ 30 µM (h PDE3): 4%; inhibition at 10 µM (Nav1.5): 8%; inhibition at 30 µM (Nav1.5): 3%; EC50/IC50 (hr Nav1.5): > 50 µM; inhibition at 10 µM (Cav1.2): -3%; inhibition at 30 µM (Cav1.2): -7%; EC50/IC50 (hr Cav1.2): > 50 µM
